# Test results reported in US20210220376A1, “ADDICTION TREATMENT OF AN ALCOHOL-CONSUMING PATIENT POPULATION” (Amygdala Neurosciences, Inc., priority 2018, published 2021).
# System: healthy male alcohol drinkers
# Experiment: Phase 1 single-ascending-dose study of compound (2) coadministered with ethanol: safety
# Assay type: in vivo, human
# Description: This was a single-center, randomized, double-blind, placebo-controlled, single-ascending-dose cohort study to evaluate the safety and tolerability of the coadministration of up to 6 dose levels of compound (2) (25 mg, 50 mg, 100 mg, 200 mg, 400 mg and 600 mg) and EtOH in healthy male alcohol drinkers.
# Within 27 days of the medical screening visit, subjects were enrolled and attended an inpatient Qualification Phase in which they received up to 5 standard drinks (14 grams of EtOH each; oral solution of vodka containing 40% [v/v] EtOH, mixed with a non-carbonated beverage, one drink every 30 minutes) to evaluate their tolerance to repeat administration to ensure they could safely tolerate the planned EtOH treatment. A minimum washout interval of 44 hours was performed between initiation of the last EtOH administration in the Qualification Phase and study drug administration in the Treatment Phase.
# Following qualification, eligible subjects were enrolled and randomized to receive compound (2) or placebo in a 3:1 fashion in each of 6 cohorts (8 subjects per cohort). As a safety precaution, no more than 4 subjects were administered study drug on any given day. Planned compound (2) dose levels included doses of 25 mg, 50 mg, 100 mg, 200 mg, 400 mg, and 600 mg. Study drug administration occurred approximately 1 hour following ingestion of a standardized (moderate-fat) meal. Approximately 2 hours after receiving the study drug, subjects began a session of repeat EtOH administration, during which they could receive up to 5 doses of EtOH (14 grams each, approximately 1 standard drink) every 30 minutes, or until a stopping criterion applied. Safety assessments, pharmacodynamic assessments and pharmacokinetic blood sample collections were obtained up to 48 hours post-dose. Subjects were discharged after 48-hour post-dose procedures were completed and the investigator deemed it safe to do so. Subjects returned for the safety follow-up visit approximately 7 (±2) days following discharge from the Treatment Phase or after early discontinuation from the study.
# The primary endpoints included frequency and severity of adverse events (AEs), ethanol reaction (ER) scores and flushing, laboratory values, vital signs, and electrocardiograms (ECGs).
# Subjects' ER scores and flushing were summarized descriptively by timepoint, category and treatment. In addition, flushing, ER heat sensation and ER palpitation were compared between each of the active doses and placebo using a mixed-effect model for repeated measures (MMRM) analysis with treatment, visit, and treatment by visit as fixed effects and baseline as a covariate. The actual value was used as the dependent variable and visit included pre-EtOH, 30 minutes, 60 minutes, 90 minutes, 120 minutes, 150 minutes and 3 hours relative to the first EtOH administration in Treatment Phase. The variance-covariance matrix was assumed to be unstructured. […] Results were presented as least square means (LSMEANS), treatment differences in LSMEANS, 95% confidence intervals (CI) and p-values.
# Vital signs measurements (respiratory rate, systolic and diastolic blood pressure, and heart rate) were summarized by treatment and visit. Heart rate and diastolic blood pressure were also compared between each of the active doses and placebo using an MMRM analysis with treatment, visit, and treatment by visit as fixed effects and baseline as a covariate.
# Twelve-lead ECG results were summarized by timepoint and treatment, and frequencies (numbers and percentages) were calculated for the overall evaluation. Concomitant medications, clinical laboratory evaluations (raw data and change from baseline, as applicable) and physical examination findings were listed.
# [1] = 25 mg, 105 min after first EtOH
# [2] = 25 mg, 135 min after first EtOH
# [3] = 50 mg, 105 min after first EtOH
# [4] = 50 mg, 135 min after first EtOH
# [5] = 100 mg, 15 min after first EtOH
# [6] = 100 mg, 45 min after first EtOH
# [7] = 100 mg, 75 min after first EtOH
# [8] = 100 mg, 105 min after first EtOH
# [9] = 100 mg, 135 min after first EtOH
# [10] = 200 mg, 15 min after first EtOH
# [11] = 200 mg, 45 min after first EtOH
# [12] = 200 mg, 75 min after first EtOH
# [13] = 200 mg, 105 min after first EtOH
smiles,measurement,setting,value
"O=C(NCc1ccc(-c2ccn(COP(=O)(O)O)c(=O)c2)cc1)c1c(Cl)cccc1Cl [Compound (2), phosphoric acid mono-(4-{4-[(2,6-dichloro-benzoylamino)-methyl]-phenyl}-2-oxo-2H-pyridin-1-ylmethyl) ester]",flushing,25 mg,not observed
same,subjects reporting a TEAE,25 mg,66.7%
same,"Diastolic Blood Pressure, Mean","25 mg, 15 min after first EtOH",76.0 mmHg
same,"Systolic Blood Pressure, Mean","25 mg, 15 min after first EtOH",120.3 mmHg
same,"Diastolic Blood Pressure, Mean","25 mg, 45 min after first EtOH",75.5 mmHg
same,"Heart Rate, Mean","25 mg, 45 min after first EtOH",65.3 beats/min
same,"Systolic Blood Pressure, Mean","25 mg, 45 min after first EtOH",120.5 mmHg
same,"QTcF Interval, Aggregate, Mean","25 mg, 1 hour after initiation of repeat EtOH administration session",406.7 ms
same,"Diastolic Blood Pressure, Mean","25 mg, 75 min after first EtOH",75.8 mmHg
same,"Heart Rate, Mean","25 mg, 75 min after first EtOH",63.5 beats/min
same,"Systolic Blood Pressure, Mean","25 mg, 75 min after first EtOH",120.7 mmHg
same,"Diastolic Blood Pressure, Mean",[1],74.0 mmHg
same,"Heart Rate, Mean",[1],66.5 beats/min
same,"Systolic Blood Pressure, Mean",[1],118.2 mmHg
same,"Diastolic Blood Pressure, Mean",[2],75.0 mmHg
same,"Heart Rate, Mean",[2],64.7 beats/min
same,"Systolic Blood Pressure, Mean",[2],119.0 mmHg
same,"Diastolic Blood Pressure, Mean","25 mg, Pre-EtOH",73.5 mmHg
same,"Heart Rate, Mean","25 mg, Pre-EtOH",59.5 beats/min
same,"Systolic Blood Pressure, Mean","25 mg, Pre-EtOH",117.2 mmHg
same,"QTcF Interval, Aggregate, Mean","25 mg, prior to initiation of repeat EtOH administration session",403.7 ms
same,subjects reporting a TEAE,50 mg,83.3%
same,"Diastolic Blood Pressure, Mean","50 mg, 15 min after first EtOH",73.3 mmHg
same,"Systolic Blood Pressure, Mean","50 mg, 15 min after first EtOH",116.7 mmHg
same,"Diastolic Blood Pressure, Mean","50 mg, 45 min after first EtOH",75.2 mmHg
same,"Heart Rate, Mean","50 mg, 45 min after first EtOH",72.7 beats/min
same,"Systolic Blood Pressure, Mean","50 mg, 45 min after first EtOH",119.5 mmHg
same,"QTcF Interval, Aggregate, Mean","50 mg, 1 hour after initiation of repeat EtOH administration session",402.5 ms
same,"Diastolic Blood Pressure, Mean","50 mg, 75 min after first EtOH",73.8 mmHg
same,"Heart Rate, Mean","50 mg, 75 min after first EtOH",80.5 beats/min
same,"Systolic Blood Pressure, Mean","50 mg, 75 min after first EtOH",117.5 mmHg
same,"Diastolic Blood Pressure, Mean",[3],71.8 mmHg
same,"Heart Rate, Mean",[3],81.8 beats/min
same,"Systolic Blood Pressure, Mean",[3],117.5 mmHg
same,"Diastolic Blood Pressure, Mean",[4],78.7 mmHg
same,"Heart Rate, Mean",[4],76.8 beats/min
same,"Systolic Blood Pressure, Mean",[4],123.7 mmHg
same,"Diastolic Blood Pressure, Mean","50 mg, Pre-EtOH",74.5 mmHg
same,"Heart Rate, Mean","50 mg, Pre-EtOH",56.7 beats/min
same,"Systolic Blood Pressure, Mean","50 mg, Pre-EtOH",115.7 mmHg
same,subjects with TEAE of tachyarrhythmia,"50 mg, after EtOH",one
same,"QTcF Interval, Aggregate, Mean","50 mg, prior to initiation of repeat EtOH administration session",400.7 ms
same,subjects reporting a TEAE,100 mg,100%
same,"Diastolic Blood Pressure, Mean",[5],72.0 mmHg
same,"Systolic Blood Pressure, Mean",[5],119.2 mmHg
same,"Diastolic Blood Pressure, Mean",[6],70.2 mmHg
same,"Heart Rate, Mean",[6],70.5 beats/min
same,"Systolic Blood Pressure, Mean",[6],120.0 mmHg
same,"QTcF Interval, Aggregate, Mean","100 mg, 1 hour after initiation of repeat EtOH administration session",405.3 ms
same,"Diastolic Blood Pressure, Mean",[7],70.7 mmHg
same,"Heart Rate, Mean",[7],81.8 beats/min
same,"Systolic Blood Pressure, Mean",[7],120.2 mmHg
same,"Diastolic Blood Pressure, Mean",[8],69.5 mmHg
same,"Heart Rate, Mean",[8],83.8 beats/min
same,"Systolic Blood Pressure, Mean",[8],125.3 mmHg
same,"Diastolic Blood Pressure, Mean",[9],68.2 mmHg
same,"Heart Rate, Mean",[9],81.3 beats/min
same,"Systolic Blood Pressure, Mean",[9],114.8 mmHg
same,"Diastolic Blood Pressure, Mean","100 mg, Pre-EtOH",71.5 mmHg
same,"Heart Rate, Mean","100 mg, Pre-EtOH",57.0 beats/min
same,"Systolic Blood Pressure, Mean","100 mg, Pre-EtOH",115.7 mmHg
same,creatine kinase value of one subject,"100 mg, follow-up, abnormal, not clinically significant",1350 U/L
same,severe TEAE,"100 mg, one event",0.6%
same,"QTcF Interval, Aggregate, Mean","100 mg, prior to initiation of repeat EtOH administration session",401.3 ms
same,"creatine kinase value of one subject, repeat","100 mg, repeat 3 days later",583 U/L
same,subjects reporting a TEAE,200 mg,100%
same,"Diastolic Blood Pressure, Mean",[10],76.5 mmHg
same,"Systolic Blood Pressure, Mean",[10],121.7 mmHg
same,"Diastolic Blood Pressure, Mean",[11],72.5 mmHg
same,"Heart Rate, Mean",[11],84.5 beats/min
same,"Systolic Blood Pressure, Mean",[11],124.5 mmHg
same,"QTcF Interval, Aggregate, Mean","200 mg, 1 hour after initiation of repeat EtOH administration session",403.2 ms
same,"Diastolic Blood Pressure, Mean",[12],69.8 mmHg
same,"Heart Rate, Mean",[12],97.0 beats/min
same,"Systolic Blood Pressure, Mean",[12],125.7 mmHg
same,"Diastolic Blood Pressure, Mean",[13],68.0 mmHg
same,"Heart Rate, Mean",[13],101.3 beats/min
same,"Systolic Blood Pressure, Mean",[13],124.0 mmHg
